Data: patent US9493430B2, “Biaryl- or heterocyclic biaryl-substituted cyclohexene derivative compounds as CETP inhibitors” (CHONG KUN DANG PHARMACEUTICAL CORP., priority 2013, dated 2016)

The molecules below were run against CETP (Homo sapiens (Human), UniProt P11597) (assay: Test for inhibition of cholesteryl ester transfer (in vitro)). Conditions: human plasma as CETP source, LDL from healthy persons as acceptor, rHDL-agarose donor, 37° C.
Assay type: biochemical
Text: Test for Inhibition of Cholesteryl Ester Transfer (In Vitro)
1. Construction of Cholesteryl Ester Donor
To construct a cholesteryl ester donor to be used in the test, radiolabeled recombinant HDL containing […] (GE healthcare, TRK886, 3.5 μCi/mg of apoA-1) and apoA-1 was synthesized. Then, rHDL-agarose having the recombinant HDL immobilized thereon by CNBr-activated Sepharose 4B (Amersham Biosciences, Sweden) resin was used in the test.
2. Cholesteryl Ester Transfer Test
As a protein source for cholesteryl ester transfer, plasma from healthy persons was used, and as a cholesteryl ester receptor, LDL from healthy persons was used. Samples were treated with each test compound to final concentrations of 16, 80, 400, 2000 and 10000 nM and analyzed in duplicate. For the cholesteryl ester transfer test, 20 μl of plasma, 50 μl of LDL (0.25 mg/ml) and 50 μl of rHDL-agarose (0.25 mg/ml) were added, and a solution containing a test compound was added, followed by reaction at 37° C. Then, centrifugation was performed at 4° C. for 3 minutes to stop the reaction, and 150 μl of the supernatant was taken and transferred to a 96-well plate for radioactivity measurement, and the radioactivity of the plate was measured with a beta-ray detector.
3. Statistical Processing
The ratio of [^3H]-cholesteryl oleate from HDL to LDL was calculated and used as a result value, and from the result value, IC50 value was calculated using GraphPad Prism 5.0.

Sequence of CETP (P11597 18-493): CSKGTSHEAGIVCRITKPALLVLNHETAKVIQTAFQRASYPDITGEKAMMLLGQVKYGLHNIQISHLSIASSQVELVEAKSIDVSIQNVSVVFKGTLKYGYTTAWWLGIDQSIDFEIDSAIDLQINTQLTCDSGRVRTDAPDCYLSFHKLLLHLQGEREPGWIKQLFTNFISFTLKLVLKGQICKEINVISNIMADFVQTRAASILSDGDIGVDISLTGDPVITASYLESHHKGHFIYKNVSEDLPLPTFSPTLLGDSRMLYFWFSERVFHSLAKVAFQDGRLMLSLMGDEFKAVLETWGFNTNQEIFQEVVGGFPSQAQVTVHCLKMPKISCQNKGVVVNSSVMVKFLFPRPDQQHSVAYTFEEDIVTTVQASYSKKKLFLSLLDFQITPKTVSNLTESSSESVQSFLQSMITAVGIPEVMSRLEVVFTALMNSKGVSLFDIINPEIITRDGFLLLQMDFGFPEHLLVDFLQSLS

Row | Structure (SMILES) | IC50
1 | COc1cc(F)c(-c2ccc(C(=O)O)cc2)cc1C1=C(CN2C(=O)O[C@H](c3cc(C(F)(F)F)cc(C(F)(F)F)c3)[C@@H]2C)CC(C)(C)CC1 [Compound 575, 5′-(2-(((4S,5R)-5-(3,5-bis(trifluoromethyl)phenyl)-4-methyl-2-oxooxazolidin-3-yl)methyl)-4,4-dimethylcyclohex-1-enyl)-2′-fluoro-4′-methoxybiphenyl-4-carboxylic acid] | 14.6 nM
2 | COc1ccc(-c2ccc(C(=O)O)cc2C(F)(F)F)nc1C1=C(CN2C(=O)O[C@H](c3cc(C(F)(F)F)cc(C(F)(F)F)c3)[C@@H]2C)CC(C)(C)CC1 [Compound 764, 4-(2-(2-(((4S,5R)-5-(3,5-bis(trifluoromethyl)phenyl)-4-methyl-2-oxooxazolidin-3-yl)methyl)-4,4-dimethylcyclohex-1-enyl)-3-methoxypyridin-6-yl)-3-(trifluoromethyl)benzoic acid] | 8.9 nM
3 | COc1ncc(-c2ccc(C(=O)O)c(F)c2F)cc1C1=C(CN2C(=O)O[C@H](c3cc(C(F)(F)F)cc(C(F)(F)F)c3)[C@@H]2C)CC(C)(C)CC1 [Compound 596, 4-(3-(2-(((4S,5R)-5-(3,5-bis(trifluoromethyl)phenyl)-4-methyl-2-oxooxazolidin-3-yl)methyl)-4,4-dimethylcyclohex-1-enyl)-2-methoxypyridin-5-yl)-2,3-difluorobenzoic acid] | 17.9 nM
4 | COc1cc(C)c(-c2ccc(C(=O)O)cc2)cc1C1=C(CN2C(=O)O[C@H](c3cc(C(F)(F)F)cc(C(F)(F)F)c3)[C@@H]2C)CC(C)(C)CC1 [Compound 620, 5′-(2-(((4S,5R)-5-(3,5-bis(trifluoromethyl)phenyl)-4-methyl-2-oxooxazolidin-3-yl)methyl)-4,4-dimethylcyclohex-1-enyl)-4′-methoxy-2′-methylbiphenyl-4-carboxylic acid] | 11.6 nM
5 | COC(=O)c1cccc(-c2ccc(OC)c(C3=C(CN4C(=O)O[C@H](c5cc(C(F)(F)F)cc(C(F)(F)F)c5)[C@@H]4C)CC(C)(C)CC3)c2)c1 [Compound 567, methyl 3′-(2-(((4S,5R)-5-(3,5-bis(trifluoromethyl)phenyl)-4-methyl-2-oxooxazolidin-3-yl)methyl)-4,4-dimethylcyclohex-1-enyl)-4′-methoxybiphenyl-3-carboxylate] | 56.6 nM
6 | COC(=O)c1ccc(-c2cc(C3=C(CN4C(=O)O[C@H](c5cc(C(F)(F)F)cc(C(F)(F)F)c5)[C@@H]4C)CC(C)(C)CC3)c(OC)cc2F)c(C)c1 [Compound 572, methyl 5′-(2-(((4S,5R)-5-(3,5-bis(trifluoromethyl)phenyl)-4-methyl-2-oxooxazolidin-3-yl)methyl)-4,4-dimethylcyclohex-1-enyl)-2′-fluoro-4′-methoxy-2-methylbiphenyl-4-carboxylate] | 15 nM
7 | C[C@H]1[C@@H](c2cc(C(F)(F)F)cc(C(F)(F)F)c2)OC(=O)N1CC1=C(c2cc(-c3ccc(C(=O)O)cc3F)cc(C(F)(F)F)c2)CCC(C)(C)C1 [Compound 748, 3′-(2-(((4S,5R)-5-(3,5-bis(trifluoromethyl)phenyl)-4-methyl-2-oxooxazolidin-3-yl)methyl)-4,4-dimethylcyclohex-1-enyl)-2-fluoro-5′-(trifluoromethyl)biphenyl-4-carboxylic acid] | 15.9 nM
8 | COc1cc(C2=C(CN3C(=O)O[C@H](c4cc(C(F)(F)F)cc(C(F)(F)F)c4)[C@@H]3C)CC(C)(C)CC2)cc(-c2ccc(C(=O)O)cc2C)c1 [Compound 689, 3′-(2-(((4S,5R)-5-(3,5-bis(trifluoromethyl)phenyl)-4-methyl-2-oxooxazolidin-3-yl)methyl)-4,4-dimethylcyclohex-1-enyl)-5′-methoxy-2-methylbiphenyl-4-carboxylic acid] | 24.3 nM
9 | COc1ccc(-c2ccc(C(=O)O)cc2F)cc1C1=C(CN2C(=O)O[C@H](c3cc(C(F)(F)F)cc(C(F)(F)F)c3)[C@@H]2C)CC(C)(C)CC1 [Compound 561, 3′-(2-(((4S,5R)-5-(3,5-bis(trifluoromethyl)phenyl)-4-methyl-2-oxooxazolidin-3-yl)methyl)-4,4-dimethylcyclohex-1-enyl)-2-fluoro-4′-methoxybiphenyl-4-carboxylic acid] | 23.2 nM
10 | C[C@H]1[C@@H](c2cc(C(F)(F)F)cc(C(F)(F)F)c2)OC(=O)N1CC1=C(c2cc(-c3ccc(C(=O)O)cc3Cl)ccc2F)CCC(C)(C)C1 [Compound 739, 3′-(2-(((4S,5R)-5-(3,5-bis(trifluoromethyl)phenyl)-4-methyl-2-oxooxazolidin-3-yl)methyl)-4,4-dimethylcyclohex-1-enyl)-2-chloro-4′-fluorobiphenyl-4-carboxylic acid] | 20.3 nM
11 | Cc1cc(C(=O)O)ccc1-c1ccc(Cl)c(C2=C(CN3C(=O)O[C@H](c4cc(C(F)(F)F)cc(C(F)(F)F)c4)[C@@H]3C)CC(C)(C)CC2)c1 [Compound 727, 3′-(2-(((4S,5R)-5-(3,5-bis(trifluoromethyl)phenyl)-4-methyl-2-oxooxazolidin-3-yl)methyl)-4,4-dimethylcyclohex-1-enyl)-4′-chloro-2-methylbiphenyl-4-carboxylic acid] | 11.4 nM
12 | COc1ncc(-c2ccc(C(=O)O)cc2C(C)C)cc1C1=C(CN2C(=O)O[C@H](c3cc(C(F)(F)F)cc(C(F)(F)F)c3)[C@@H]2C)CC(C)(C)CC1 [Compound 578, 4-(3-(2-(((4S,5R)-5-(3,5-bis(trifluoromethyl)phenyl)-4-methyl-2-oxooxazolidin-3-yl)methyl)-4,4-dimethylcyclohex-1-enyl)-2-methoxypyridin-5-yl)-3-isopropylbenzoic acid] | 12.6 nM
13 | C[C@H]1[C@@H](c2cc(C(F)(F)F)cc(C(F)(F)F)c2)OC(=O)N1CC1=C(c2ccc(F)c(-c3ccc(C(=O)O)cc3C(F)(F)F)c2)CCC(C)(C)C1 [Compound 723, 5′-(2-(((4S,5R)-5-(3,5-bis(trifluoromethyl)phenyl)-4-methyl-2-oxooxazolidin-3-yl)methyl)-4,4-dimethylcyclohex-1-enyl)-2′-fluoro-2-(trifluoromethyl)biphenyl-4-carboxylic acid] | 9.6 nM
14 | Cc1cc(C(=O)O)ccc1-c1cc(C2=C(CN3C(=O)O[C@H](c4cc(C(F)(F)F)cc(C(F)(F)F)c4)[C@@H]3C)CC(C)(C)CC2)ccc1C [Compound 677, 5′-(2-(((4S,5R)-5-(3,5-bis(trifluoromethyl)phenyl)-4-methyl-2-oxooxazolidin-3-yl)methyl)-4,4-dimethylcyclohex-1-enyl)-2,2′-dimethylbiphenyl-4-carboxylic acid] | 15.9 nM

Now those with a lower IC50, led by results:

Row | IC50 | Structure (SMILES)
15 | 1.9 nM | COc1cc(C)c(-c2ccc(C(=O)O)cc2C)cc1C1=C(CN2C(=O)O[C@H](c3cc(C(F)(F)F)cc(C(F)(F)F)c3)[C@@H]2C)CC(C)(C)CC1 [Compound 684, 5′-(2-(((4S,5R)-5-(3,5-bis(trifluoromethyl)phenyl)-4-methyl-2-oxooxazolidin-3-yl)methyl)-4,4-dimethylcyclohex-1-enyl)-4′-methoxy-2,2′-dimethylbiphenyl-4-carboxylic acid]
16 | 7.5 nM | C[C@H]1[C@@H](c2cc(C(F)(F)F)cc(C(F)(F)F)c2)OC(=O)N1CC1=C(c2cc(-c3ccc(C(=O)O)cc3C(F)(F)F)ccc2Cl)CCC(C)(C)C1 [Compound 729, 3′-(2-(((4S,5R)-5-(3,5-bis(trifluoromethyl)phenyl)-4-methyl-2-oxooxazolidin-3-yl)methyl)-4,4-dimethylcyclohex-1-enyl)-4′-chloro-2-(trifluoromethyl)biphenyl-4-carboxylic acid]
17 | 5.9 nM | CCNC(=O)c1ccc(-c2ccc(F)c(C3=C(CN4C(=O)O[C@H](c5cc(C(F)(F)F)cc(C(F)(F)F)c5)[C@@H]4C)CC(C)(C)CC3)c2)c(C(F)(F)F)c1 [Compound 756, 3′-(2-(((4S,5R)-5-(3,5-bis(trifluoromethyl)phenyl)-4-methyl-2-oxooxazolidin-3-yl)methyl)-4,4-dimethylcyclohex-1-enyl)-N-ethyl-4′-fluoro-2-(trifluoromethyl)biphenyl-4-carboxamide]
18 | 8.4 nM | COc1ccc(-c2ccc(C(=O)O)c(F)c2F)cc1C1=C(CN2C(=O)O[C@H](c3cc(C(F)(F)F)cc(C(F)(F)F)c3)[C@@H]2C)CC(C)(C)CC1 [Compound 592, 3′-(2-(((4S,5R)-5-(3,5-bis(trifluoromethyl)phenyl)-4-methyl-2-oxooxazolidin-3-yl)methyl)-4,4-dimethylcyclohex-1-enyl)-2,3-difluoro-4′-methoxybiphenyl-4-carboxylic acid]
19 | 6.9 nM | COc1cc(C(F)(F)F)c(-c2ccc(C(=O)O)cc2)cc1C1=C(CN2C(=O)O[C@H](c3cc(C(F)(F)F)cc(C(F)(F)F)c3)[C@@H]2C)CC(C)(C)CC1 [Compound 612, 5′-(2-(((4S,5R)-5-(3,5-bis(trifluoromethyl)phenyl)-4-methyl-2-oxooxazolidin-3-yl)methyl)-4,4-dimethylcyclohex-1-enyl)-4′-methoxy-2′-(trifluoromethyl)biphenyl-4-carboxylic acid]
20 | 7.6 nM | COc1cc(C(F)(F)F)c(-c2ccc(C(=O)O)cc2C)cc1C1=C(CN2C(=O)O[C@H](c3cc(C(F)(F)F)cc(C(F)(F)F)c3)[C@@H]2C)CC(C)(C)CC1 [Compound 616, 5′-(2-(((4S,5R)-5-(3,5-bis(trifluoromethyl)phenyl)-4-methyl-2-oxooxazolidin-3-yl)methyl)-4,4-dimethylcyclohex-1-enyl)-4′-methoxy-2-methyl-2′-(trifluoromethyl)biphenyl-4-carboxylic acid]
